{"source": "paper PMC7881117", "about": "(Nature Communications, 2021)", "biological_target": "T1, p53 (Homo sapiens, UniProt P04637)", "T1 construct": "gene TP53", "T1 sequence (P04637 whole entry)": "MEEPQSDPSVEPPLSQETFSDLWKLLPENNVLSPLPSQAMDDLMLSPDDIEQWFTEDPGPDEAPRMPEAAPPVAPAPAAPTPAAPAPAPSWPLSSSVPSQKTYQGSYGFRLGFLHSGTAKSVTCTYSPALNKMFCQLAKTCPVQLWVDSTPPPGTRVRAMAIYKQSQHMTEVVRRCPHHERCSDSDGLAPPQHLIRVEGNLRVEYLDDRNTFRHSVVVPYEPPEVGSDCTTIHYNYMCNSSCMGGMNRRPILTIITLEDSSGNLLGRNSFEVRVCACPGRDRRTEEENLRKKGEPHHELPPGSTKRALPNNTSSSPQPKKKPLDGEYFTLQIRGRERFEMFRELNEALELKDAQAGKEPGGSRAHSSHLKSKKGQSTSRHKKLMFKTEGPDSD", "experiment": "SPR with immobilized p53; also STD NMR, […]-13C NCO NMR titration, SAXS and AUC with NTD", "assay_type": "binding", "data": [{"smiles": "O=C(O[C@@H]1Cc2c(O)cc(O)cc2O[C@@H]1c1cc(O)c(O)c(O)c1)c1cc(O)c(O)c(O)c1", "note": "[EGCG, Epigallocatechin gallate]", "values": [{"measurement": "Kd", "result": "1600 ± 1400", "unit": "nM"}]}]}
